Results as given in patent US20060069132A1, “Azolecarboxamide herbicides” (priority 2004, published 2006).

Experiments:
lambsquarters = test: Test B pre-/postemergence herbicide test; type: in vivo, Chenopodium album
Outline: (§1)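 Evaluation is visual, comparing treated with control plants on a scale where 0 means no effect and 100 means full control. Treatments were preemergence, or postemergence on seedlings 2–18 cm tall, and held 13–15 days in the greenhouse.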

rice [1] = test: Test B flooded paddy test; type: in vivo, Oryza sativa; conditions: 1000 g ai/ha, scale 0 to 100 (0 no effect, 100 complete control)
Outline: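 Each value is a visual 0–100 response rating taken against controls 13 to 15 days after treatment in the greenhouse. Plants received formulated chemical postemergence at the 1- to 4-leaf stage or, in flooded paddy, at the 2-leaf stage.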

blackgrass = test: Test B postemergence herbicide test; type: in vivo, Alopecurus myosuroides
Outline: (§2)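 Paddy species grown to the 2-leaf stage under flooding; blackgrass sprayed postemergence at 2–18 cm (1- to 4-leaf stage). Plants kept in a greenhouse for 13 to 15 days, then visually rated against controls on 0 (no effect) to 100 (complete control).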

pigweed = test: Test B pre-/postemergence herbicide test; type: in vivo, Amaranthus retroflexus
Outline: as §1

barnyardgrass [2] = test: Test C flooded paddy test; type: in vivo, Echinochloa crus-galli; conditions: for Plant response rating, Barnyardgrass: 500 g ai/ha, visual rating after 12 to 14 days
Outline: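 Postemergence sprays were applied to plants 2 to 18 cm tall (1- to 4-leaf stage); in the flooded paddy test, barnyardgrass was grown to the 2-leaf stage. After 12 to 14 days in a greenhouse, injury was visually rated against untreated controls on a 0–100 scale (100 = complete control).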

rice [3] = test: Test C flooded paddy test; type: in vivo, Oryza sativa; conditions: for Plant response rating, Rice: 500 g ai/ha, visual rating after 12 to 14 days
Outline: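 Postemergence sprays applied to plants 2 to 18 cm tall (1- to 4-leaf stage); paddy species grown to 2-leaf stage under flooding. After 12 to 14 days in greenhouse, visual rating versus untreated controls on 0–100 scale (0 no effect, 100 complete control).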

barnyardgrass [4] = test: Test B flooded paddy test; type: in vivo, Echinochloa crus-galli; conditions: 1000 g ai/ha, scale 0 to 100 (0 no effect, 100 complete control)
Outline: as §2

wheat = test: Test B postemergence herbicide test; type: in vivo, Triticum aestivum; set-up: key to Wheat plant response rating: 0 = no effect, 100 = complete control
Outline: (§3)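 Read-out: visual comparison with controls, scored 0 to 100, where 100 means complete control and 0 no effect. Formulated chemicals were applied postemergence to plants 2–18 cm tall (1- to 4-leaf), or to flooded-paddy plants at the 2-leaf stage, then held 13 to 15 days under glass.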

ducksalad [5] = test: Test B flooded paddy test; type: in vivo, Heteranthera limosa; conditions: 1000 g ai/ha, scale 0 to 100 (0 no effect, 100 complete control)
Outline: as §2

Surinam grass = test: Test B pre-/postemergence herbicide test; type: in vivo, Urochloa decumbens
Outline: as §1

cocklebur = test: Test B pre-/postemergence herbicide test; type: in vivo, Xanthium strumarium
Outline: (§4)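 Test chemicals in a non-phytotoxic solvent mixture with surfactant were applied preemergence to seeded species and postemergence to plants 2-18 cm tall (1- to 4-leaf stage); rice and barnyardgrass were also tested in a flooded paddy at the 2-leaf stage. Visual rating versus controls after 13-15 days in greenhouse, scale 0 (no effect) to 100 (complete control).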

[6] = test system: smallflower umbrella sedge; test: Test C flooded paddy test; type: in vivo, Cyperus difformis; conditions: for Plant response rating, Sedge, Umbrella: 500 g ai/ha, visual rating after 12 to 14 days
wild oat = test: Test B postemergence herbicide test; type: in vivo, Avena fatua
Outline: as §3

giant foxtail = test: Test B pre-/postemergence herbicide test; type: in vivo, Setaria faberi
Outline: as §1

ducksalad [7] = test: Test C flooded paddy test; type: in vivo, Heteranthera limosa; conditions: for Plant response rating, Ducksalad: 500 g ai/ha, visual rating after 12 to 14 days
large crabgrass = test: Test B pre-/postemergence herbicide test; type: in vivo, Digitaria sanguinalis
Outline: as §1

corn = test: Test B pre-/postemergence herbicide test; type: in vivo, Zea mays
Outline: as §1

morningglory = test: Test B pre-/postemergence herbicide test; type: in vivo, Ipomoea coccinea
Outline: as §4

barnyardgrass [8] = test: Test B pre-/postemergence herbicide test; type: in vivo, Echinochloa crus-galli
Outline: as §4

[9] = test system: small flower umbrella sedge; test: Test B flooded paddy test; type: in vivo, Cyperus difformis; conditions: 1000 g ai/ha, scale 0 to 100 (0 no effect, 100 complete control)
Outline: as §2

velvetleaf = test: Test B pre-/postemergence herbicide test; type: in vivo, Abutilon theophrasti
Outline: as §1

[10] = 500 g ai/ha; visual rating 0-100, 0 no effect, 100 complete control; preemergence
[11] = Postemergence, 500 g ai/ha; visual rating after 13 to 15 days, scale 0 (no effect) to 100 (complete control)
[12] = postemergence, 125 g ai/ha; visual rating, scale 0 (no effect) to 100 (complete control)
[13] = preemergence, 125 g ai/ha; 0 to 100 scale, 0 is no effect, 100 is complete control
[14] = 62 g ai/ha, scale 0 to 100 (0 no effect, 100 complete control)
[15] = 125 g ai/ha, scale of 0 to 100, 0 is no effect, 100 is complete control
[16] = 250 g ai/ha, scale of 0 to 100, 0 is no effect, 100 is complete control
[17] = scale 0 to 100 (0 no effect, 100 complete control)
[18] = 125 g ai/ha; 0 is no effect, 100 is complete control; preemergence
[19] = 125 g ai/ha; visual rating, scale 0 (no effect) to 100 (complete control); postemergence
[20] = 500 g ai/ha; visual rating, 0 = no effect, 100 = complete control; preemergence
[21] = postemergence, 500 g ai/ha; scale 0 to 100, 0 is no effect, 100 is complete control
[22] = 125 g ai/ha, scale 0 to 100 (0 no effect, 100 complete control)

CON=C(C)c1cccc(NC(=O)c2cc(C(C)(C)C)nn2C)c1 [Compound 106]
20: Plant response rating, Pigweed (pigweed; [11]) | Plant response rating, Rice (rice [3]; [17]) | Plant response rating, Surinam Grass (Surinam grass; [10]) | Cocklebur plant response rating (cocklebur; [12]) | Plant response rating, Oat, Wild (wild oat; [11]) | Plant response rating, Velvetleaf (velvetleaf; [11])
100: Plant response rating, Lambsquarters (lambsquarters; [10]) | Plant response rating, Crabgrass, Large (large crabgrass; [10])
10: Pigweed plant response rating (pigweed; [12]) | Plant response rating, Surinam Grass (Surinam grass; [11]) | Surinam Grass plant response rating (Surinam grass; [12]) | Oat, Wild plant response rating (wild oat; [12]) | Plant response rating, Foxtail, Giant (giant foxtail; [13]) | Plant response rating, Crabgrass, Large (large crabgrass; [11]) | Plant response rating, Corn (corn; [11]) | Corn plant response rating (corn; [12]) | Plant response rating, Morningglory (morningglory; [10]) | Plant response rating, Morningglory (morningglory; [11]) | Morningglory plant response rating (morningglory; [12])
50: Lambsquarters plant response rating (lambsquarters; [12]) | Plant response rating, Cocklebur (cocklebur; [11])
40: Plant response rating, Foxtail, Giant (giant foxtail; [10])
80: Ducksalad plant response rating (ducksalad [5]; visual rating, 13 to 15 days) | Plant response rating, Sedge, Umbrella [6, 17]
70: Plant response rating, Pigweed (pigweed; [10]) | Plant response rating, Barnyardgrass (barnyardgrass [8]; [10])
0: Plant response rating, Lambsquarters (lambsquarters; [13]) | Rice plant response rating (rice [1]; visual rating, 13 to 15 days) | Plant response rating, Blackgrass (blackgrass; [11]) | Blackgrass plant response rating (blackgrass; [12]) | Plant response rating, Pigweed (pigweed; [13]) | Barnyardgrass plant response rating (barnyardgrass [2]; [14]) | Barnyardgrass plant response rating (barnyardgrass [2]; [15]) | Barnyardgrass plant response rating (barnyardgrass [2]; [16]) | Plant response rating, Barnyardgrass (barnyardgrass [2]; [17]) | Rice plant response rating (rice [3]; [14]) | Rice plant response rating (rice [3]; [15]) | Rice plant response rating (rice [3]; [16]) | Barnyardgrass plant response rating (barnyardgrass [4]; visual rating, 13 to 15 days) | Plant response rating, Wheat (wheat; [11]) | Wheat plant response rating (wheat; [12]) | Plant response rating, Surinam Grass (Surinam grass; [13]) | Plant response rating, Cocklebur (cocklebur; [10]) | Plant response rating, Cocklebur (cocklebur; [13]) | Sedge, Umbrella plant response rating [6, 14] | Sedge, Umbrella plant response rating [6, 15] | Plant response rating, Foxtail, Giant (giant foxtail; [11]) | Foxtail, Giant plant response rating (giant foxtail; [12]) | Ducksalad plant response rating (ducksalad [7]; [14]) | Ducksalad plant response rating (ducksalad [7]; [15]) | Ducksalad plant response rating (ducksalad [7]; [16]) | Plant response rating, Ducksalad (ducksalad [7]; [17]) | Crabgrass, Large plant response rating (large crabgrass; [12]) | Plant response rating, Corn (corn; [10]) | Plant response rating, Corn (corn; [13]) | Plant response rating, Barnyardgrass (barnyardgrass [8]; [11]) | Barnyardgrass plant response rating (barnyardgrass [8]; [12]) | Plant response rating, Velvetleaf (velvetleaf; [10]) | Velvetleaf plant response rating (velvetleaf; [12]) | Plant response rating, Velvetleaf (velvetleaf; [13])
90: Plant response rating, Lambsquarters (lambsquarters; [11]) | Plant response rating, Crabgrass, Large (large crabgrass; [13]) | Sedge, Umbrella plant response rating ([9]; visual rating, 13 to 15 days)
30: Sedge, Umbrella plant response rating [6, 16]

CCNC(=O)c1cccc(NC(=O)c2nn(C(C)C)nc2CC)c1 [Compound 357]
45: Rice plant response rating (rice [3]; [16]) | Ducksalad plant response rating (ducksalad [7]; [16])
60: Lambsquarters plant response rating (lambsquarters; [21])
80: Ducksalad plant response rating (ducksalad [5]) | Plant response rating, Surinam Grass (Surinam grass; [20]) | Plant response rating, Corn (corn; [20]) | Plant response rating, Barnyardgrass (barnyardgrass [8]; [20]) | Sedge, Umbrella plant response rating [9]
90: Plant response rating (0 to 100 scale), Lambsquarters (lambsquarters; [18]) | Sedge, Umbrella plant response rating [6, 16]
0: Blackgrass plant response rating (blackgrass; [19]) | Barnyardgrass plant response rating (barnyardgrass [2]; [14]) | Barnyardgrass plant response rating (barnyardgrass [2]; [22]) | Rice plant response rating (rice [3]; 62 g ai/ha, scale 0 to 100) | Rice plant response rating (rice [3]; [22]) | Wheat plant response rating (wheat; [19]) | Wheat plant response rating (wheat; [21]) | Plant response rating (0 to 100 scale), Cocklebur (cocklebur; [18]) | Oat, Wild plant response rating (wild oat; [19]) | Crabgrass, Large plant response rating (large crabgrass; [19]) | Plant response rating (0 to 100 scale), Corn (corn; [18]) | Corn plant response rating (corn; [19]) | Barnyardgrass plant response rating (barnyardgrass [8]; [19]) | Plant response rating (0 to 100 scale), Velvetleaf (velvetleaf; [18])
85: Sedge, Umbrella plant response rating [6, 22]
10: Surinam Grass plant response rating (Surinam grass; [19]) | Cocklebur plant response rating (cocklebur; [19]) | Crabgrass, Large plant response rating (large crabgrass; [21]) | Plant response rating (0 to 100 scale), Morningglory (morningglory; [18]) | Morningglory plant response rating (morningglory; [19]) | Barnyardgrass plant response rating (barnyardgrass [8]; [21])
20: Pigweed plant response rating (pigweed; [19]) | Surinam Grass plant response rating (Surinam grass; [21]) | Cocklebur plant response rating (cocklebur; [21]) | Plant response rating (0 to 100 scale), Foxtail, Giant (giant foxtail; [18]) | Corn plant response rating (corn; [21]) | Velvetleaf plant response rating (velvetleaf; [19]) | Velvetleaf plant response rating (velvetleaf; [21])
55: Plant response rating, Barnyardgrass (barnyardgrass [2]; [17])
30: Lambsquarters plant response rating (lambsquarters; [19]) | Blackgrass plant response rating (blackgrass; [21]) | Barnyardgrass plant response rating (barnyardgrass [2]; [16]) | Plant response rating (0 to 100 scale), Surinam Grass (Surinam grass; [18]) | Plant response rating, Cocklebur (cocklebur; [20]) | Oat, Wild plant response rating (wild oat; [21]) | Foxtail, Giant plant response rating (giant foxtail; [19]) | Ducksalad plant response rating (ducksalad [7]; 62 g ai/ha, scale 0 to 100) | Ducksalad plant response rating (ducksalad [7]; [22]) | Morningglory plant response rating (morningglory; [21]) | Plant response rating (0 to 100 scale), Barnyardgrass (barnyardgrass [8]; [18])
70: Rice plant response rating (rice [1]) | Plant response rating, Rice (rice [3]; [17]) | Barnyardgrass plant response rating (barnyardgrass [4]) | Plant response rating (0 to 100 scale), Crabgrass, Large (large crabgrass; [18]) | Plant response rating, Morningglory (morningglory; [20])
40: Pigweed plant response rating (pigweed; [21]) | Sedge, Umbrella plant response rating ([6]; 62 g ai/ha, scale 0 to 100) | Foxtail, Giant plant response rating (giant foxtail; [21])
95: Plant response rating, Sedge, Umbrella [6, 17] | Plant response rating, Ducksalad (ducksalad [7]; [17])
100: Plant response rating, Lambsquarters (lambsquarters; [20]) | Plant response rating (0 to 100 scale), Pigweed (pigweed; [18]) | Plant response rating, Pigweed (pigweed; [20]) | Plant response rating, Foxtail, Giant (giant foxtail; [20]) | Plant response rating, Crabgrass, Large (large crabgrass; [20])
